What was measured:
[1] = test system: BRAF (V599E)-MEK1-ERK2 cascade (MAP kinase pathway); test: BRAF-MEK-ERK enzymatic cascade assay (TR-FRET); format: biochemical, human; conditions: compound at 10 μM, 45 min pre-incubation with enzymes, 100 μM ATP, 90 min reaction
Text: A BRAF-MEK-ERK cascade assay is used to evaluate the effects of these compounds as inhibitors of the MAP kinase pathway. An enzymatic cascade assay is set up using recombinant human activated BRAF (V599E) kinase (Cat No. 14-557), human full length unactive MEK1 kinase (Cat No. 14-706) and human full length unactive MAP Kinase 2/ERK2 (Cat No. 14-536) enzymes procured from Upstate. TR-FRET (Time resolved fluorescence resonance energy transfer) detection technology is used for the read out. The assay buffer solution contains 50 mM Tris pH 7.5, 10 mM MgCl2, 1 mM DTT, 0.01% Tween 20, 0.1 nM activated BRAF, 2 nM unactive MEK1, 10 nM unactive ERK2, 100 μM ATP and 500 nM long chain biotin-peptide substrate (LCB-FFKNIVTPRTPPP) in a 384 well format. The kinase reaction is stopped after 90 minutes with 10 mM EDTA and Lance detection mix (2 nM Eu-labeled phospho-serine/threonine antibody (Cat. No. AD0176-Perkin Elmer), 20 nM SA-APC (Cat No. CR130-100-Perkin Elmer) is added. The TR-FRET signal (Excitation at 340 nm, Emission at 615 nm and 665 nm) is read with […] on a Victor3 V fluorimeter. The data is calculated using the ratio of readings at 665 nm to 615 nm. The final concentration of DMSO is 2.5% in the assay. Compounds are screened at 10 μM concentration with pre-incubation of the enzymes in the presence of test compound for 45 minutes. […]
These assays described above are fully detailed in Han, Shulin, et. al., Bioorganic & Medicinal Chemistry Letters (2005) 15, 5467-5473, and in Yeh, et. al., Clin Cancer Res (2007) 13 (5), 1576-1583.
(§1) The compounds of the above Examples were evaluated as inhibitors of the MAP kinase pathway in a BRAF-MEK-ERK enzymatic cascade assay and in a cell viability assay, the results of which are collated in Table 1 below.

A375 cells = test: Cell viability assay in A375 cells (XTT); format: cell-based; conditions: XTT read-out three days after compound addition
Description: The cell viability assay in A375 cells is set up in a 96-well plate format using XTT. XTT is a yellow tetrazolium salt that is cleaved to an orange formazan dye by the mitochondria of metabolically active cells. The procedure allows for rapid determination in a microtitre plate, to give reproducible and sensitive results.
A375 cells are grown in DMEM media containing 10% FBS and 1 mM sodium pyruvate. Cells are trypsinized and seeded at 1000 cells/well. After allowing the cells to adhere overnight, compound is added to the wells at the following final concentrations: 10, 3, 1, 0.3, 0.1, 0.03, 0.01, 0.001, and 0.0001 μM. The assay is set up in triplicates for each concentration. DMSO concentrations are kept at 0.5%/well. Three days after compound addition, the XTT assay is performed. Wells are washed once with PBS. 100 μL of DMEM media without phenol red or FBS is added to each well. A working solution of XTT containing 1 mg/ml XTT and 100 μL of PMS (stock concentration 0.383 mg/ml) per 5 ml is prepared. 50 μL of the working solution of XTT is added to each well. Absorbance of the plate is read at 465 nm using a Spectramax 190 (Molecular Devices). The absorbance from wells with media and XTT alone, but without cells is considered the blank and subtracted from readings from all wells.
Percentage viability is calculated considering the blank subtracted value from wells treated with DMSO alone as 100% viable. G150 values are calculated using Graphpad Prism, using non-linear regression curve fit for sigmoidal dose response (variable slope).
The cell viability assay is further described in Scudiero, et. al., Cancer Research (1988) 48, 4827-4833; Weislow, et. al., J. Natl. Cancer Institute, (1989) 81, 577-586; and Roehm, et. al., J. Immunol. Methods [1991] 142:257-265.
as §1

| Compound | % inhibition (10 μM) [1] | GI50 (A375 cells; listed as 1J-isomer 1) | GI50 (A375 cells; listed as 1J-isomer 2) | GI50 (A375 cells; Homo sapiens, A-375, 72 h) |
| --- | --- | --- | --- | --- |
| O=S(=O)(Nc1c(Nc2ccc(I)cc2F)c(F)c(F)c2ncoc12)C1(CC(O)CO)CC1 (single isomer, unassigned) [Example 1J-isomer 1, N-(4,5-Difluoro-6-(2-fluoro-4-iodophenylamino)benzo[d]oxazol-7-yl)-1-(2,3-dihydroxypropyl)cyclopropane-1-sulfonamide] | 99% | 0.096 µM |  |  |
| O=S(=O)(Nc1c(Nc2ccc(I)cc2F)c(F)c(F)c2ncoc12)C1(CC(O)CO)CC1 (single isomer, unassigned) [Example 1J-isomer 2, N-(4,5-Difluoro-6-(2-fluoro-4-iodophenylamino)benzo[d]oxazol-7-yl)-1-(2,3-dihydroxypropyl)cyclopropane-1-sulfonamide] | 99% |  | 0.046 µM |  |
| Cc1nc2c(F)c(F)c(Nc3ccc(I)cc3F)c(NS(=O)(=O)N(C)C)c2o1 [Example 1B, Dimethylsulfamic acid [4,5-difluoro-6-(2-fluoro-4-iodo-phenylamino)-2-methyl-benzooxazol-7-yl]-amide] | 100% |  |  | 2.01 µM |
| CN(C)S(=O)(=O)Nc1c(Nc2ccc(I)cc2F)c(F)c(F)c2ncoc12 [Example 1C, Dimethylsulfamic acid [4,5-difluoro-6-(2-fluoro-4-iodo-phenylamino)-benzooxazol-7-yl]amide] | 100% |  |  | 0.646 µM |
| C=CCC1(S(=O)(=O)Nc2c(Nc3ccc(I)cc3F)c(F)c(F)c3ncoc23)CC1 [Example 1D, 1-Allyl-cyclopropanesulfonic acid [4,5-difluoro-6-(2-fluoro-4-iodo-phenylamino)-benzooxazol-7-yl]-amide] | 100% |  |  | 0.94 µM |
| Cc1nc2c(F)c(F)c(Nc3ccc(I)cc3F)c(NS(=O)(=O)C3CC3)c2o1 [Example 1E, Cyclopropanesulfonic acid [4,5-difluoro-6-(2-fluoro-4-iodo-phenylamino)-2-methyl-benzooxazol-7-yl]amide] | 93% |  |  | 1 µM |
| CN(C)S(=O)(=O)Nc1c(Nc2ccc(Br)cc2F)c(F)c(F)c2ncoc12 [Example 1F, Dimethylsulfamic acid [4,5-difluoro-6-(2-fluoro-4-bromo-phenylamino)-benzooxazol-7-yl]-amide] | 99% |  |  | 2.37 µM |
| O=S(=O)(Nc1c(Nc2ccc(Br)cc2F)c(F)c(F)c2ncoc12)C1CC1 [Example 1G] | 92% |  |  | > 10 µM |
| Cc1nc2c(F)c(F)c(Nc3ccc(Br)cc3F)c(NS(=O)(=O)C3CC3)c2o1 [Example 1H, Cyclopropanesulfonic acid [6-(4-bromo-2-fluoro-phenylamino)-4,5-difluoro-2-methyl-benzooxazol-7-yl]-amide] | 10% |  |  |  |
| O=S(=O)(Nc1c(Nc2ccc(I)cc2F)c(F)c(F)c2ncoc12)C1(CC(O)CO)CC1 (centres unmarked) [Example 1I, 1-(2,3-Dihydroxy-propyl)-cyclopropanesulfonic acid [4,5-difluoro-6-(2-fluoro-4-iodo-phenylamino)-benzooxazol-7-yl]-amide] | 100% |  |  | 0.047 µM |
| O=S(=O)(Nc1c(Nc2ccc(I)cc2F)c(F)c(F)c2ncoc12)C1CC1COCc1ccccc1 (centres unmarked) [Example 1K, 2-(Benzyloxymethyl)-N-(4,5-difluoro-6-(2-fluoro-4-iodophenylamino)benzo[d]oxazol-7-yl)cyclopropane-1-sulfonamide] | 100% |  |  | 5.7 µM |
| O=S(=O)(Nc1c(Nc2ccc(I)cc2F)c(F)c(F)c2ncoc12)C1CC1CO (centres unmarked) [Example 1L, N-(4,5-Difluoro-6-(2-fluoro-4-iodophenylamino)benzo[d]oxazol-7-yl)-2-(hydroxymethyl)cyclopropane-1-sulfonamide] | 99% |  |  | 2.7 µM |
| O=S(=O)(Nc1c(Nc2ccc(I)cc2F)c(F)c(F)c2ncoc12)C1(COCc2ccccc2)CC1 [Example 1M, 1-(Benzyloxymethyl)-N-(4,5-difluoro-6-(2-fluoro-4-iodophenylamino)benzo[d]oxazol-7-yl)cyclopropane-1-sulfonamide] | 95% |  |  | 3.55 µM |
| O=S(=O)(Nc1c(Nc2ccc(I)cc2F)c(F)c(F)c2ncoc12)C1(CO)CC1 [Example 1N, N-(4,5-Difluoro-6-(2-fluoro-4-iodophenylamino)benzo[d]oxazol-7-yl)-1-(hydroxymethyl)cyclopropane-1-sulfonamide] | 100% |  |  | 0.186 µM |
| O=S(=O)(Nc1c(Nc2ccc(I)cc2F)c(F)c(F)c2ccoc12)C1CC1 [Example 2A, Cyclopropane sulfonic acid [4,5-difluoro-6-(2-fluoro-4-iodo-phenylamino)-benzofuran-7-yl]amide] | 99% |  |  | 0.029 µM |
| O=S(=O)(Nc1c(Nc2ccc(I)cc2F)c(F)c(F)c2ccoc12)C1(CC(O)CO)CC1 (centres unmarked) [Example 2B, 1-(2,3-Dihydroxy-propyl)-cyclopropanesulfonic acid [4,5-difluoro-6-(2-fluoro-4-iodo-phenylamino)-benzofuran-7-yl]amide] | 100% |  |  | 0.017 µM |
| O=S(=O)(Nc1c(Nc2ccc(I)cc2F)c(F)c(F)c2ccoc12)C1(CCO)CC1 [Example 2C, 1-(2-Hydroxy-ethyl)-cyclopropanesulfonic acid [4,5-difluoro-6-(2-fluoro-4-iodo-phenylamino)-benzofuran-7-yl]amide] | 100% |  |  | 0.012 µM |
| O=S(=O)(Nc1c(Nc2ccc(I)cc2F)c(F)c(F)c2ccoc12)C1CC1CO (centres unmarked) [Example 2D, 2-Hydroxymethyl-cyclopropanesulfonic acid [4,5-difluoro-6-(2-fluoro-4-iodo-phenylamino)-benzofuran-7-yl]-amide] | 99% |  |  | 0.119 µM |
